Laboratory results published in ChEMBL document CHEMBL1914295, “Synthesis and biological evaluation of some novel triazol-3-ones as antimicrobial agents” (2011).

Experiments:
Assay type in all cases: functional
Details in all cases: read-out: IZ
Bacillus subtilis [1] = test: Antibacterial activity against Bacillus subtilis at 200 ug/ml after 24 hrs by disc diffusion method
Staphylococcus aureus [2] = test: Antibacterial activity against Staphylococcus aureus at 100 ug/ml after 24 hrs by disc diffusion method
Klebsiella pneumoniae [3] = test: Antibacterial activity against Klebsiella pneumoniae at 200 ug/ml after 24 hrs by disc diffusion method
Candida albicans [4] = test: Antifungal activity against Candida albicans at 200 ug/ml after 48 hrs by disc diffusion method
Aspergillus niger [5] = test: Antifungal activity against Aspergillus niger at 100 ug/ml after 48 hrs by disc diffusion method
Bacillus subtilis [6] = test: Antibacterial activity against Bacillus subtilis at 100 ug/ml after 24 hrs by disc diffusion method
Escherichia coli [7] = test: Antibacterial activity against Escherichia coli at 100 ug/ml after 24 hrs by disc diffusion method
Escherichia coli [8] = test: Antibacterial activity against Escherichia coli at 200 ug/ml after 24 hrs by disc diffusion method
Aspergillus niger [9] = test: Antifungal activity against Aspergillus niger at 200 ug/ml after 48 hrs by disc diffusion method
Fusarium solani [10] = test: Antifungal activity against Fusarium solani at 200 ug/ml after 48 hrs by disc diffusion method
Candida albicans [11] = test: Antifungal activity against Candida albicans at 100 ug/ml after 48 hrs by disc diffusion method
Staphylococcus aureus [12] = test: Antibacterial activity against Staphylococcus aureus at 200 ug/ml after 24 hrs by disc diffusion method
Klebsiella pneumoniae [13] = test: Antibacterial activity against Klebsiella pneumoniae at 100 ug/ml after 24 hrs by disc diffusion method
Fusarium solani [14] = test: Antifungal activity against Fusarium solani at 100 ug/ml after 48 hrs by disc diffusion method

Row | SMILES | zone of inhibition at 200 µg/mL (Bacillus subtilis [1]) [mm] | zone of inhibition at 100 µg/mL (Staphylococcus aureus [2]) [mm] | zone of inhibition at 200 µg/mL (Klebsiella pneumoniae [3]) [mm] | zone of inhibition at 200 µg/mL (Candida albicans [4]) [mm] | zone of inhibition at 100 µg/mL (Aspergillus niger [5]) [mm] | zone of inhibition at 100 µg/mL (Bacillus subtilis [6]) [mm] | zone of inhibition at 100 µg/mL (Escherichia coli [7]) [mm] | zone of inhibition at 200 µg/mL (Escherichia coli [8]) [mm] | zone of inhibition at 200 µg/mL (Aspergillus niger [9]) [mm] | zone of inhibition at 200 µg/mL (Fusarium solani [10]) [mm] | zone of inhibition at 100 µg/mL (Candida albicans [11]) [mm] | zone of inhibition at 200 µg/mL (Staphylococcus aureus [12]) [mm] | zone of inhibition at 100 µg/mL (Klebsiella pneumoniae [13]) [mm] | zone of inhibition at 100 µg/mL (Fusarium solani [14]) [mm]
1 | O=c1[nH]ncn1-c1nc(-c2ccsc2)cs1 | 29 | 25 | 26 | 38 | 34 | 27 | 24 | 26 | 39 | 37 | 35 | 28 | 22 | 32
2 | Cn1ncn(-c2nc(-c3ccsc3)cs2)c1=O | 36 | 32 | 28 | 40 | 39 | 34 | 23 | 25 | 42 | 43 | 36 | 35 | 26 | 40
3 | CCn1ncn(-c2nc(-c3ccsc3)cs2)c1=O | 27 | 24 | 28 | 29 | 21 | 21 | 23 | 29 | 24 | 32 | 23 | 32 | 26 | 29
4 | CC(C)n1ncn(-c2nc(-c3ccsc3)cs2)c1=O | 23 | 25 | 29 | 24 | 30 | 20 | 22 | 24 | 33 | 29 | 22 | 27 | 26 | 27
5 | CC(C)Cn1ncn(-c2nc(-c3ccsc3)cs2)c1=O | 18 | 16 | 18 | 21 | 26 | 16 | 17 | 21 | 27 | 30 | 17 | 20 | 15 | 26
6 | N#CCn1ncn(-c2nc(-c3ccsc3)cs2)c1=O | 26 | 28 | 21 | 32 | 27 | 23 | 26 | 29 | 29 | 34 | 28 | 31 | 16 | 28
7 | COCCCn1ncn(-c2nc(-c3ccsc3)cs2)c1=O | 26 | 24 | 28 | 28 | 26 | 23 | 24 | 28 | 28 | 36 | 24 | 26 | 25 | 34
8 | CC1Sc2sccc2-c2nc(-n3cn[nH]c3=O)sc21 (stereo not given) | 23 | 18 | 20 | 28 | 26 | 20 | 15 | 20 | 29 | 24 | 25 | 21 | 17 | 22
9 | CC1Sc2sccc2-c2nc(-n3cnn(C)c3=O)sc21 (stereo not given) | 19 | 14 | 19 | 24 | 20 | 16 | 18 | 21 | 23 | 26 | 22 | 16 | 16 | 24
10 | CCn1ncn(-c2nc3c(s2)C(C)Sc2sccc2-3)c1=O (stereo not given) | 31 | 25 | 26 | 29 | 23 | 28 | 22 | 27 | 26 | 31 | 26 | 29 | 24 | 28
11 | CC1Sc2sccc2-c2nc(-n3cnn(C(C)C)c3=O)sc21 (stereo not given) | 15 | 14 | 16 | 21 | 17 | 13 | 15 | 18 | 22 | 19 | 16 | 16 | 14 | 17
12 | CC(C)Cn1ncn(-c2nc3c(s2)C(C)Sc2sccc2-3)c1=O (stereo not given) | 16 | 12 | 12 | 21 | 16 | 13 | 12 | 14 | 18 | 20 | 17 | 15 | 10 | 16
13 | CC1Sc2sccc2-c2nc(-n3cnn(CC#N)c3=O)sc21 (stereo not given) | 18 | 13 | 14 | 18 | 16 | 15 | 11 | 13 | 19 | 18 | 14 | 17 | 11 | 15
14 | COCCCn1ncn(-c2nc3c(s2)C(C)Sc2sccc2-3)c1=O (stereo not given) | 33 | 23 | 24 | 39 | 37 | 31 | 22 | 25 | 41 | 44 | 36 | 28 | 21 | 39
15 | O=C(N[C@H](CO)[C@H](O)c1ccc([N+](=O)[O-])cc1)C(Cl)Cl [CHLORAMPHENICOL] | 41 | 35 | 45 |  |  | 38 | 40 | 44 |  |  |  | 39 | 42 | 
16 | CC(=O)N1CCN(c2ccc(OCC3COC(Cn4ccnc4)(c4ccc(Cl)cc4Cl)O3)cc2)CC1 (stereo not given) [KETOCONAZOLE] |  |  |  | 39 | 41 |  |  |  | 44 | 42 | 36 |  |  | 38
